Measurements from ChEMBL document CHEMBL5357031, “Design and Synthesis of Cytotoxic Water-Soluble Rocaglaol Derivatives against HEL Cells by Inhibiting Fli-1” (J Nat Prod, 2024).

Columns and labels:
HEL [1] = experiment: Cytotoxicity against HEL cells assessed as cell growth inhibition incubated for 72 hrs by MTT assay; type: functional, cell-based, Homo sapiens; settings: hel
SW480 = experiment: Cytotoxicity against human SW480 cells assessed as cell growth inhibition incubated for 72 hrs by MTT assay; type: functional, cell-based; settings: sw480
[2] = Solubility of compound in PBS at pH 7.4 at 1.7 mg measured for 24 hrs by HPLC-UV analysis; type: physicochemical
HEL [3] = experiment: Induction of apoptosis in HEL cells assessed as viable cells at 0.1 uM incubated for 24 hrs by Annexin V/PI staining based flow cytometry (reference value: 94.94 %); type: functional; settings: Homo sapiens, read-out: Activity
HEL [4] = experiment: Induction of apoptosis in HEL cells assessed as early apoptotic cells at 0.1 uM incubated for 24 hrs by Annexin V/PI staining based flow cytometry (reference value: 1.47 %); type: functional, Homo sapiens
HEL [5] = experiment: Induction of apoptosis in HEL cells assessed as late apoptotic cells at 0.1 uM incubated for 24 hrs by Annexin V/PI staining based flow cytometry (reference value: 1.98 %); type: functional, Homo sapiens
HEL [6] = experiment: Induction of apoptosis in HEL cells assessed as necrotic cells at 0.1 uM incubated for 24 hrs by Annexin V/PI staining based flow cytometry (reference value: 1.61 %); type: functional, Homo sapiens
HEL [7] = experiment: Induction of apoptosis in HEL cells assessed as viable cells at 0.2 uM incubated for 24 hrs by Annexin V/PI staining based flow cytometry (reference value: 94.94 %); type: functional; settings: Homo sapiens, read-out: Activity
HEL [8] = experiment: Induction of apoptosis in HEL cells assessed as early apoptotic cells at 0.2 uM incubated for 24 hrs by Annexin V/PI staining based flow cytometry (reference value: 1.47 %); type: functional, Homo sapiens
HEL [9] = experiment: Induction of apoptosis in HEL cells assessed as late apoptotic cells at 0.2 uM incubated for 24 hrs by Annexin V/PI staining based flow cytometry (reference value: 1.98 %); type: functional, Homo sapiens
HEL [10] = experiment: Induction of apoptosis in HEL cells assessed as necrotic cells at 0.2 uM incubated for 24 hrs by Annexin V/PI staining based flow cytometry (reference value: 1.61 %); type: functional, Homo sapiens
HEL [11] = experiment: Induction of apoptosis in HEL cells assessed as viable cells at 0.4 uM incubated for 24 hrs by Annexin V/PI staining based flow cytometry (reference value: 94.94 %); type: functional; settings: Homo sapiens, read-out: Activity
HEL [12] = experiment: Induction of apoptosis in HEL cells assessed as early apoptotic cells at 0.4 uM incubated for 24 hrs by Annexin V/PI staining based flow cytometry (reference value: 1.47 %); type: functional, Homo sapiens
HEL [13] = experiment: Induction of apoptosis in HEL cells assessed as late apoptotic cells at 0.4 uM incubated for 24 hrs by Annexin V/PI staining based flow cytometry (reference value: 1.98 %); type: functional, Homo sapiens
HEL [14] = experiment: Induction of apoptosis in HEL cells assessed as necrotic cells at 0.4 uM incubated for 24 hrs by Annexin V/PI staining based flow cytometry (reference value: 1.61 %); type: functional, Homo sapiens
HEL [15] = experiment: Induction of apoptosis in HEL cells assessed as viable cells at 0.1 uM incubated for 48 hrs by Annexin V/PI staining based flow cytometry (reference value: 95.63 %); type: functional; settings: Homo sapiens, read-out: Activity
HEL [16] = experiment: Induction of apoptosis in HEL cells assessed as early apoptotic cells at 0.1 uM incubated for 48 hrs by Annexin V/PI staining based flow cytometry (reference value: 1.62 %); type: functional, Homo sapiens
HEL [17] = experiment: Induction of apoptosis in HEL cells assessed as late apoptotic cells at 0.1 uM incubated for 48 hrs by Annexin V/PI staining based flow cytometry (reference value: 1.83 %); type: functional, Homo sapiens
HEL [18] = experiment: Induction of apoptosis in HEL cells assessed as necrotic cells at 0.1 uM incubated for 48 hrs by Annexin V/PI staining based flow cytometry (reference value: 0.92 %); type: functional, Homo sapiens
HEL [19] = experiment: Induction of apoptosis in HEL cells assessed as viable cells at 0.2 uM incubated for 48 hrs by Annexin V/PI staining based flow cytometry (reference value: 95.63 %); type: functional; settings: Homo sapiens, read-out: Activity
HEL [20] = experiment: Induction of apoptosis in HEL cells assessed as early apoptotic cells at 0.2 uM incubated for 48 hrs by Annexin V/PI staining based flow cytometry (reference value: 1.62 %); type: functional, Homo sapiens
HEL [21] = experiment: Induction of apoptosis in HEL cells assessed as late apoptotic cells at 0.2 uM incubated for 48 hrs by Annexin V/PI staining based flow cytometry (reference value: 1.83 %); type: functional, Homo sapiens
HEL [22] = experiment: Induction of apoptosis in HEL cells assessed as necrotic cells at 0.2 uM incubated for 48 hrs by Annexin V/PI staining based flow cytometry (reference value: 0.92 %); type: functional, Homo sapiens
HEL [23] = experiment: Induction of apoptosis in HEL cells assessed as viable cells at 0.4 uM incubated for 48 hrs by Annexin V/PI staining based flow cytometry (reference value: 95.63 %); type: functional; settings: Homo sapiens, read-out: Activity
HEL [24] = experiment: Induction of apoptosis in HEL cells assessed as early apoptotic cells at 0.4 uM incubated for 48 hrs by Annexin V/PI staining based flow cytometry (reference value: 1.62 %); type: functional, Homo sapiens
HEL [25] = experiment: Induction of apoptosis in HEL cells assessed as late apoptotic cells at 0.4 uM incubated for 48 hrs by Annexin V/PI staining based flow cytometry (reference value: 1.83 %); type: functional, Homo sapiens
HEL [26] = experiment: Induction of apoptosis in HEL cells assessed as necrotic cells at 0.4 uM incubated for 48 hrs by Annexin V/PI staining based flow cytometry (reference value: 0.92 %); type: functional, Homo sapiens
HEL [27] = experiment: Induction of cell cycle arrest in HEL cells assessed as cell accumulation at G1 phase at 0.1 uM incubated for 24 hrs by […] (reference value: 39.11 %); type: functional, Homo sapiens
HEL [28] = experiment: Induction of cell cycle arrest in HEL cells assessed as cell accumulation at S phase at 0.1 uM incubated for 24 hrs by […] (reference value: 16.18 %); type: functional, Homo sapiens
HEL [29] = experiment: Induction of cell cycle arrest in HEL cells assessed as cell accumulation at G2/M phase at 0.1 uM incubated for 24 hrs by […] (reference value: 16.18 %); type: functional, Homo sapiens
HEL [30] = experiment: Induction of cell cycle arrest in HEL cells assessed as cell accumulation at G1 phase at 0.2 uM incubated for 24 hrs by Western blot analysis (reference value: 39.11 %); type: functional, Homo sapiens
HEL [31] = experiment: Induction of cell cycle arrest in HEL cells assessed as cell accumulation at S phase at 0.2 uM incubated for 24 hrs by […] (reference value: 16.18 %); type: functional, Homo sapiens
HEL [32] = experiment: Induction of cell cycle arrest in HEL cells assessed as cell accumulation at G2/M phase at 0.2 uM incubated for 24 hrs by […] (reference value: 16.18 %); type: functional, Homo sapiens
HEL [33] = experiment: Induction of cell cycle arrest in HEL cells assessed as cell accumulation at G1 phase at 0.4 uM incubated for 24 hrs by […] (reference value: 39.11 %); type: functional, Homo sapiens
HEL [34] = experiment: Induction of cell cycle arrest in HEL cells assessed as cell accumulation at S phase at 0.4 uM incubated for 24 hrs by […] (reference value: 16.18 %); type: functional, Homo sapiens
HEL [35] = experiment: Induction of cell cycle arrest in HEL cells assessed as cell accumulation at G2/M phase at 0.4 uM incubated for 24 hrs by […] (reference value: 16.18 %); type: functional, Homo sapiens
HEL [36] = experiment: Induction of cell cycle arrest in HEL cells assessed as cell accumulation at G1 phase at 0.1 uM incubated for 48 hrs by […] (reference value: 54.17 %); type: functional, Homo sapiens
HEL [37] = experiment: Induction of cell cycle arrest in HEL cells assessed as cell accumulation at S phase at 0.1 uM incubated for 48 hrs by […] (reference value: 33.66 %); type: functional, Homo sapiens
HEL [38] = experiment: Induction of cell cycle arrest in HEL cells assessed as cell accumulation at G2/M phase at 0.1 uM incubated for 48 hrs by […] (reference value: 20.36 %); type: functional, Homo sapiens
HEL [39] = experiment: Induction of cell cycle arrest in HEL cells assessed as cell accumulation at G1 phase at 0.2 uM incubated for 48 hrs by […] (reference value: 54.17 %); type: functional, Homo sapiens
HEL [40] = experiment: Induction of cell cycle arrest in HEL cells assessed as cell accumulation at S phase at 0.2 uM incubated for 48 hrs by […] (reference value: 33.66 %); type: functional, Homo sapiens
HEL [41] = experiment: Induction of cell cycle arrest in HEL cells assessed as cell accumulation at G2/M phase at 0.2 uM incubated for 48 hrs by […] (reference value: 20.36 %); type: functional, Homo sapiens
HEL [42] = experiment: Induction of cell cycle arrest in HEL cells assessed as cell accumulation at G1 phase at 0.4 uM incubated for 48 hrs by […] (reference value: 54.17 %); type: functional, Homo sapiens
HEL [43] = experiment: Induction of cell cycle arrest in HEL cells assessed as cell accumulation at S phase at 0.4 uM incubated for 48 hrs by […] (reference value: 33.66 %); type: functional, Homo sapiens
HEL [44] = experiment: Induction of cell cycle arrest in HEL cells assessed as cell accumulation at G2/M phase at 0.4 uM incubated for 48 hrs by […] (reference value: 20.36 %); type: functional, Homo sapiens

Description for MDA-MB-231: Cytotoxicity against human MDA-MB-231 cells assessed as cell growth inhibition incubated for 72 hrs by MTT assay

For `COc1cc(OC)c2c(c1)O[C@@]1(c3ccc(OCCCCCN4CCN(C)CC4)cc3)[C@H](c3ccccc3)C[C@@H](O)[C@@]21O.O=C(O)/C=C/C(=O)O` (racemic; form 2), the IC50 (HEL [1]) was 190 nM, the IC50 (SW480) was > 1000 nM and the solubility at 24 h [2] was 12.5 mg/mL. It also gave a viability at 0.1 µM (HEL [3]) of 94.7%, an Activity (HEL [4]) of 1.34% and an Activity (HEL [5]) of 2.02%. It also gave an Activity (HEL [6]) of 1.96%, a viability at 0.2 µM (HEL [7]) of 95.2% and an Activity (HEL [8]) of 1.5%. The Activity (HEL [9]) was 1.66%, the Activity (HEL [10]) was 1.68% and the viability at 0.4 µM (HEL [11]) was 94.6%. It also gave an Activity (HEL [12]) of 2.17%, an Activity (HEL [13]) of 2.1% and an Activity (HEL [14]) of 1.12%. It also gave a viability at 0.1 µM (HEL [15]) of 92%, an Activity (HEL [16]) of 3.45% and an Activity (HEL [17]) of 3.54%. The Activity (HEL [18]) was 1.02%, the viability at 0.2 µM (HEL [19]) was 82.9% and the Activity (HEL [20]) was 6.37%. For the same compound, the Activity (HEL [21]) was 7.65%, the Activity (HEL [22]) was 3.11% and the viability at 0.4 µM (HEL [23]) was 68.9%. It also gave an Activity (HEL [24]) of 18.85%, an Activity (HEL [25]) of 10.08% and an Activity (HEL [26]) of 2.21%. It also gave an Activity (HEL [27]) of 39.54%, an Activity (HEL [28]) of 39.19% and an Activity (HEL [29]) of 21.09%. The Activity (HEL [30]) was 50.73%, the Activity (HEL [31]) was 27.85% and the Activity (HEL [32]) was 20.55%. It also gave an Activity (HEL [33]) of 54.17%, an Activity (HEL [34]) of 27.85% and an Activity (HEL [35]) of 18.31%. It also gave an Activity (HEL [36]) of 43.16%, an Activity (HEL [37]) of 30.25% and an Activity (HEL [38]) of 25.52%. The Activity (HEL [39]) was 62.59%, the Activity (HEL [40]) was 19.87% and the Activity (HEL [41]) was 15.61%. It also gave an Activity (HEL [42]) of 66.15%, an Activity (HEL [43]) of 19.87% and an Activity (HEL [44]) of 8.35%. The IC50 (MDA-MB-231) was > 1000 nM.
